What all share (type): cell-based
For data set [1], the system named is carbapenem-resistant Acinetobacter baumannii-882. Put plainly: MIC, clinical isolates. On the procedure: (§1) The minimum inhibitory concentration of 3H-imidazo[4,5-C]pyridine pleuromutilin onium salt derivatives against the tested pathogenic microorganisms were determined by broth microdilution method, with valnemulin and retapamulin as positive controls.
(§2) The experimental strains included resistant Gram-positive bacteria: Methicillin-resistant S. aureus ATCC 33591; Methicillin-resistant S. aureus ATCC 43300; S. aureus ATCC 29213; Methicillin-resistant S. epidermidis ATCC 51625. Resistant Gram-negative bacteria: A. baumannii ATCC 19606; S. enterica ATCC14028; E. coli ATCC 25922; E. coli CMCC 44103. 9 clinically isolated resistant strains: MRSA-171; MRSA-575; MRSA-206; MRSA-222; MRSA-596; VRE-80; MDR-PA-126; MDR-KP-893; CR-AB-882.
(§3) (1) Preparation of MHB medium: Weigh 18.0 g of MHB medium pre-made powder, add it to 1 L of distilled water, heat and boil until completely dissolved, divide it into conical bottles, sterilize it by high pressure at 121° C. for 15 minutes, and set aside.
(§4) (2) Cultivate the experimental strain to the logarithmic growth phase: Under sterile conditions, inoculate the experimental strain into fresh MHB medium and culture it in a 37° C. constant temperature and humidity incubator for 16-24 hours. Adjust the bacterial solution concentration to 1.5×10^8 CFU/mL and then dilute it 200 times for later use.
(§5) (3) Preparation of storage solution: Weigh the sample to be tested, dissolve it in 1% DMSO solution, and prepare a storage solution with a concentration of 2560 μg/mL; weigh the positive control, dissolve it in sterile distilled water, and prepare a storage solution with a concentration of 2560 μg/mL.
(§6) (4) Preparation of bacterial suspension: Under sterile conditions, the experimental strain cultured to the logarithmic growth phase was calibrated to a 0.5 McFarland unit turbidity standard using MHB medium and then diluted at a ratio of 1:200 to prepare a bacterial suspension with a concentration of 5×10^5 CFU/mL for later use.
(§7) (5) Determination of MIC by two-fold microdilution method: Take a sterile 96-well plate, add 10 μL of the test compound at a concentration of 2560 μg/mL, and perform serial dilutions by the two-fold dilution method. At the same time, set up a negative control group without drug. Then add 190 μL of diluted bacterial solution to each well, so that the final bacterial solution concentration in each well is 5×10^5 CFU/mL, and incubate in a 37° C. constant temperature and humidity chamber for 24 hours.

Data set [2] relates to multidrug-resistant Klebsiella pneumoniae-893. Nature of the data set: MIC, clinical isolates. The settings on record: clinical isolate MDR-KP-893. Here is the method:
as §1, §2, §3, §4, §5, §6, §7

The subject of data set [3] is methicillin-resistant Staphylococcus aureus-206. Nature of the data set: MIC, clinical isolates. On the procedure: as §1, §2, §3, §4, §5, §6, §7
Data set [4] relates to methicillin-resistant Staphylococcus aureus-596. Nature of the data set: MIC, clinical isolates. Here is the method: as §1, §2, §3, §4, §5, §6, §7
The test system of data set [5] is methicillin-resistant Staphylococcus aureus-222. Nature of the data set: MIC, clinical isolates. The settings on record: MRSA / MRSE. Here is the method:
as §1, §2, §3, §4, §5, §6, §7

In data set [6] the test system is multidrug-resistant Pseudomonas aeruginosa-126. Put plainly: MIC, clinical isolates. On the procedure:
as §1, §2, §3, §4, §5, §6, §7

Data set [7] concerns methicillin-resistant Staphylococcus aureus-575. Put plainly: MIC, clinical isolates. On the procedure:
as §1, §2, §3, §4, §5, §6, §7

Data set [8] relates to vancomycin-resistant Enterococcus-80. Put plainly: MIC, clinical isolates. On the procedure: as §1, §2, §3, §4, §5, §6, §7
For data set [9], the system named is methicillin-resistant Staphylococcus aureus-171. Put plainly: MIC, clinical isolates. On the procedure:
as §1, §2, §3, §4, §5, §6, §7

Data set [10] relates to HEK293 Cells. Nature of the data set: Cytotoxicity, Cell Counting Kit-8. On the procedure: (§8) Cell Counting Kit-8 was used to evaluate the cytotoxicity of the compounds.
(§9) (4) Cell culture: HepG2, HEK293 and A549 cells were evenly dispersed in culture medium, seeded into 96-well plates, and cultured under appropriate environmental conditions to keep the cells completely attached to the well walls.
(§10) (5) Compound treatment: Add different concentrations of compounds I-8 and I-9 to each well (the concentrations are 0.78, 1.56, 3.13, 6.25, 12.5, 25, 50 and 100 μM, respectively, and perform 6 parallel experiments). Set up a blank control group and a normal control group. After incubation for 24 hours, observe the cell condition, which observed under a microscope.
(§11) (6) CCK-8 solution treatment: Add CCK-8 solution to each well and incubate for 4 hours to allow it to react with the cells.
(§12) (7) Absorbance determination: Use a full-wavelength scanning multifunctional reader, place the 96-well plate in the instrument, oscillate to mix to make the color evenly distributed, and measure the absorbance value at 490 nm.
(§13) (8) Data analysis: Based on the measured absorbance values, the cell survival rate at different concentrations can be calculated. The median cytotoxic concentration was used to evaluate the cytotoxicity of the compound to A549, HEK293 and HepG2 cells.

For data set [11], the system named is A549 Cells. Nature of the data set: Cytotoxicity, Cell Counting Kit-8. On the procedure:
as §8, §9, §10, §11, §12, §13
(Tetrazolium dyes change colour on reduction, which living cells bring about.)

The test system of data set [12] is HepG2 Cells. Nature of the data set: Cytotoxicity, Cell Counting Kit-8. On the procedure:
as §8, §9, §10, §11, §12, §13

The test system of data set [13] is Methicillin-resistant S. aureus ATCC 43300. Nature of the data set: MIC, broth microdilution. The note with it: Staphylococcus aureus, ATCC 43300 / MRSA, read-out: Minimum inhibitory concentration MRSA^c. The essentials: (§14)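 Two-fold broth microdilution in MHB; inoculum 5×10^5 CFU/mL final, from log-phase cultures adjusted to 0.5 McFarland. Plates incubated 24 h at 37° C. Test compounds from 2560 μg/mL stock in 1% DMSO; drug-free negative control included.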
(Dilution methods test growth across graded concentrations, often in twofold steps.)

In data set [14] the test system is E. coli ATCC 25922. Put plainly: MIC, broth microdilution. The settings on record: Escherichia coli. An outline of the steps: as §14
Data set [15] relates to S. enterica ATCC14028. Put plainly: MIC, broth microdilution. The settings on record: Salmonella enterica. An outline of the steps: as §14
The test system of data set [16] is A. baumannii ATCC 19606. Nature of the data set: MIC, broth microdilution. The note with it: Acinetobacter baumannii. The essentials:
as §14

In data set [17] the test system is S. aureus ATCC 29213. Nature of the data set: MIC, broth microdilution. The settings on record: Staphylococcus aureus. The essentials: as §14
In data set [18] the test system is Methicillin-resistant S. aureus ATCC 33591. Nature of the data set: MIC, broth microdilution. The note with it: Staphylococcus aureus, ATCC 33591 / MRSA, read-out: Minimum inhibitory concentration MRSA^b. The essentials: as §14

Molecules are shown by their SMILES. ≈ marks a conversion by molar mass, not a printed value. Where two headings read alike, the source gives them in different places.

As a reminder, the CC50 is the concentration at which the toxic effect on the cells reaches its halfway point.

As for `C=C[C@]1(C)C[C@@H](OC(=O)CSc2nc3cc[n+](Cc4ccc(C)cc4)cc3[nH]2)[C@]2(C)[C@H](C)CC[C@]3(CCC(=O)[C@H]32)[C@@H](C)[C@@H]1O` [Compound i, 5-(4-methylbenzyl)-2-((2-(((3aR,4R,5R,7S,8S,9R,9aS,12R)-8-hydroxy-4,7,9,12-tetramethyl-3-oxo-7-vinyldecahydro-4,9a-propancyclopenta[8]cyclo-5-yl)oxy)-2-oxoethyl)thio)-3H-imidazo[4,5-C]pyridine-5-ium], the MIC in [1] (clinical isolate CR-AB-882, read-out: Antibacterial activity (MIC) CR-AB^j) came to 4 µg/mL; in data set [3] (clinical isolate MRSA-206, read-out: Antibacterial activity (MIC) MRSA^d) it was 1 µg/mL; in [4] (clinical isolate MRSA-596, read-out: Antibacterial activity (MIC) MRSA^f) it was 2 µg/mL; in data set [5] (clinical isolate MRSA-222, read-out: Antibacterial activity (MIC) MRSE^e) it was 4 µg/mL; in [6] (clinical isolate MDR-PA-126, read-out: Antibacterial activity (MIC) MDR-PA^h), 4 µg/mL; in data set [7] (clinical isolate MRSA-575, read-out: Antibacterial activity (MIC) MRSA^c) it was 1 µg/mL. In addition, the MIC in data set [8] (clinical isolate VRE-80, read-out: Antibacterial activity (MIC) VRE^g) was 4 µg/mL; in data set [9] (clinical isolate MRSA-171, read-out: Antibacterial activity (MIC) MRSA^b) it was 4 µg/mL; in [13] (Methicillin-resistant S. aureus ATCC 43300), 0.0625 µg/mL; in data set [14] (ATCC25922, E. coli ATCC 25922, read-out: Minimum inhibitory concentration E.c.^h), 0.125 µg/mL; in data set [15] (S. enterica ATCC14028, read-out: Minimum inhibitory concentration S.e.^g), 0.25 µg/mL; in [16] (ATCC19606, A. baumannii ATCC 19606, read-out: Minimum inhibitory concentration A.b.^f), 0.25 µg/mL. Moreover, the MIC in [17] (ATCC29213, S. aureus ATCC 29213, read-out: Minimum inhibitory concentration S.a.^d) was determined as 0.0625 µg/mL; in [18] (Methicillin-resistant S. aureus ATCC 33591), 0.125 µg/mL. Moreover, the “Antibacterial activity (MIC) MDR-KP^i” value in data set [2] came out at 2 µg/mL. Also, the CC50 was 96.4 µM in data set [10] (CCK-8, 24 hours incubation, read-out: CC50 HEK293 Cells); above 100 µM in data set [11] (CCK-8, 24 hours incubation, read-out: CC50 A549 Cells); above 100 µM in data set [12] (CCK-8, 24 hours incubation, read-out: CC50 HepG2 Cells).
In the case of `C=C[C@]1(C)C[C@@H](OC(=O)CS[C@@H]2C[C@H]3CC[C@@H](C2)N3C)[C@]2(C)[C@H](C)CC[C@]3(CCC(=O)[C@H]32)[C@@H](C)[C@@H]1O` [Retapamulin, reference compound], the MIC was 64 µg/mL (≈ 124 µM) in [1] (read-out: Antibacterial activity (MIC) CR-AB^j); 64 µg/mL (≈ 124 µM) in [3] (MRSA, read-out: Antibacterial activity (MIC) MRSA^d); 32 µg/mL (≈ 61.8 µM) in data set [4] (MRSA, read-out: Antibacterial activity (MIC) MRSA^f); 128 µg/mL (≈ 247 µM) in [5] (read-out: Antibacterial activity (MIC) MRSE^e); 64 µg/mL (≈ 124 µM) in [6] (read-out: Antibacterial activity (MIC) MDR-PA^h); 32 µg/mL (≈ 61.8 µM) in [7] (MRSA, read-out: Antibacterial activity (MIC) MRSA^c). For the same compound, the MIC in data set [8] (VRE, read-out: Antibacterial activity (MIC) VRE^g) was above 128 µg/mL; in data set [9] (MRSA, read-out: Antibacterial activity (MIC) MRSA^b), 128 µg/mL (≈ 247 µM); in [13] it was 16 µg/mL (≈ 30.9 µM); in [14] (ATCC25922, read-out: Minimum inhibitory concentration E.c.^h), 32 µg/mL (≈ 61.8 µM); in [15] (ATCC14028, read-out: Minimum inhibitory concentration S.e.^g), 128 µg/mL (≈ 247 µM); in [16] (ATCC19606, read-out: Minimum inhibitory concentration A.b.^f), 4 µg/mL (≈ 7.73 µM). Moreover, the MIC in data set [17] (ATCC29213, read-out: Minimum inhibitory concentration S.a.^d) came to 4 µg/mL (≈ 7.73 µM); in data set [18], 32 µg/mL (≈ 61.8 µM). Moreover, the “Antibacterial activity (MIC) MDR-KP^i” value in data set [2] came out at 128 µg/mL. Also, the 50% cytotoxic concentration (CC50) came to 57.5 µM in data set [10] (human, 24 h); 71.5 µM in data set [11] (human, 24 h); 61.1 µM in [12] (human, 24 h).

(Values after patent US12275734B1, “Pleuromutilin onium salt derivative containing a 3H-imidazo[4,5-c]pyridine side chain, and a preparation method and application thereof” (SHAANXI UNIVERSITY OF SCIENCE AND TECHNOLOGY, priority 2024, dated 2025).)
